Experimental findings from patent publication US9963446B2, “Oxepan-2-yl-pyrazol-4-yl-heterocyclyl-carboxamide compounds and methods of use” (Genentech, Inc., priority 2014, dated 2018) are described below.

Each structure is given as a SMILES string.

Test [1] has as its target PIM1 (Homo sapiens (Human), UniProt P11309). The test is described as follows: Pim kinase binding activity (PIM1 LC3K Ki). It counts as biochemical. The note with it: 20 pM PIM1, 10 μM ATP, 90 minutes. The procedure: PIM-1, -2, and -3 enzymes were generated as fusion proteins expressed in bacteria and purified by IMAC column chromatography (Sun, X., Chiu, J. F., and He, Q. Y. (2005) Expert Rev. Proteomics, 2:649-657). A fluorescent-labeled Pim-specific peptide substrate, was custom synthesized by American Peptide Company (Sunnyvale, Calif.). Reaction Buffer contained 10 mM HEPES, pH 7.2, 10 mM MgCl2, 0.01% Tween 20, 2 mM DTT. Termination Buffer contained 190 mM HEPES, pH 7.2, 0.015% Brij-35, 0.2% Coating Reagent 3 (Caliper Life Sciences, Hopkinton, Mass.), 20 mM EDTA. Separation Buffer contained 100 mM HEPES, pH 7.2, 0.015% Brij-35, 0.1% Coating Reagent 3, 1:200 Coating Reagent 8 (Caliper Life Sciences, Hopkinton, Mass.), 10 mM EDTA and 5% DMSO.
PIM reactions were carried out in a final volume of 10 μL per well in a 384-well plate. A standard enzymatic reaction, initiated by the addition of 5 μL 2×ATP and test compound to 5 μL of 2× enzyme and FAM-peptide, contained 20 pM PIM1, 50 pM PIM2, or 55 pM PIM3, 1 μM FAM-peptide, and 10 μM ATP, in Reaction Buffer. After 90 minutes of incubation at room temperature, the phosphorylation reaction was stopped by the addition of 10 μL Termination Buffer. The product and substrate in each independent reaction were separated on a 12-sipper microfluidic chip (Caliper Life Sciences, Hopkinton, Mass.) run on a Caliper LC3000® (Caliper Life Sciences, Hopkinton, Mass.). The separation of product and substrate was optimized by choosing voltages and pressure using Caliper's Optimizer software (Hopkinton, Mass.). The separation conditions used a downstream voltage of −500V, an upstream voltage of −2150V, and a screening pressure of −1.2 psi. The product and substrate fluorophore were excited at 488 nm and detected at 530 nm. Substrate conversion was calculated from the electropherogram using HTS Well Analyzer software (Caliper Life Sciences, Hopkinton, Mass.). Ki values for the test compound were calculated. See Table 1 for representative PIM1 LC3K Ki in micromolar values of exemplary compounds.

The subject of test [2] is BaF3 PIM1 cells. The test is described as follows: In vitro cell proliferation, BaF3 transfected with PIM1. It counts as cell-based, murine. The note with it: Mus musculus; BaF3 PIM1 line, incubated overnight; read-out: Prolif BaF3 PIM1 (IC50). The procedure: (§1) BaF3 parental line was obtained from the DSMZ repository. BaF3 lines transfected with PIM1 or PIM2 were generated. Mouse IL-3 was purchased from R&D Systems. G418 was purchased from Clontech. Media for BaF3 parental line contained RPMI, 10% FBS, 2 mM L-Glutamine, 2 ng/mL mIL-3. Media for BaF3 PIM1 & 2 lines contained RPMI, 10% FBS, 2 mM L-Glutamine, […]. Media for MM1.S (multiple myeloma cells) line contained RPMI, 10% FBS, 2 mM L-Glutamine.
(§2) BaF3, a murine interleukin-3 dependent pro-B cell line, parental cells, BaF3 PIM1 cells, BaF3 PIM2 cells, and MM1.S (multiple myeloma) cells were seeded at 2 k/well, 5 k/well, 5 k/well, and 10 k/well respectively, in a 384-well plate, at 45 μL/well. Test compound was added at 5 μL/well. BaF3 cells (parental and transfected) were incubated overnight, while MM1.S cells were incubated for 72 hours at 37° C., 5% CO2. CELL TITER GLO® Reagent (Promega) was added at 50 μL/well, the plates were incubated for 30 minutes, and their luminescence read on an HT Analyst. IC50/EC50 values for the test compound were calculated.

Test [3] concerns BaF3 parental cells. Put plainly: In vitro cell proliferation, BaF3 parental line + IL3. The note with it: Mus musculus; BaF3 parental line with mIL-3, incubated overnight; read-out: Prolif BaF3 + IL3 (IC50). Format: cell-based, murine. Here is the method: as §1, §2
The subject of test [4] is MM1.S (multiple myeloma) cells. The test is described as follows: In vitro cell proliferation, MM1.S (CELL TITER GLO). It counts as cell-based. The note with it: Homo sapiens, 72 hours, read-out: Prolif MM1S ATP (EC50). The procedure:
as §1, §2
(In ATP-based viability assays light output follows the ATP content of the culture.)

Chain of PIM1 (P11309 whole entry, the tested form may be a part): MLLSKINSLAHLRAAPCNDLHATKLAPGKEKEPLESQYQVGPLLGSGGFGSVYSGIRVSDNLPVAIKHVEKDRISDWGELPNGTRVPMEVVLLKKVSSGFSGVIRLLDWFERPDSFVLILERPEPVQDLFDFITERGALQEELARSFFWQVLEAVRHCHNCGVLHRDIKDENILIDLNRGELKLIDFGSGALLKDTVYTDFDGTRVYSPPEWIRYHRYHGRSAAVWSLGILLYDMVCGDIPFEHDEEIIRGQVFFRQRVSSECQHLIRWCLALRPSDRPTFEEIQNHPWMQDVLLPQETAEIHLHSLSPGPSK

What is called Ki is a measure of affinity in units of concentration, obtained from inhibition or displacement. What is called IC50 is the concentration needed to halve the response being measured. Usually EC50 stands for the concentration that produces a half-maximal response. `C[C@H](F)c1cc(F)c(-c2nc(C(=O)Nc3cnn(C)c3[C@@H]3CC[C@@H](N)[C@H](F)CO3)cs2)c(F)c1` [Example 101, N-(5-((2S,5R,6S)-5-amino-6-fluorooxepan-2-yl)-1-methyl-1H-pyrazol-4-yl)-2-(2,6-difluoro-4-((S)-1-fluoroethyl)phenyl)thiazole-4-carboxamide] registered a Ki in test [1] of 0.002 nM. Moreover, the IC50 came out at 24.8 nM in test [2] and 7100 nM in test [3]. The EC50 in test [4] amounted to 441 nM.

In the case of `Cn1ncc(NC(=O)c2csc(-c3c(F)cc4c(c3F)OCC[C@@H]4O)n2)c1[C@@H]1CC[C@@H](N)[C@H](F)CO1` [Example 111, N-(5-((2S,5R,6S)-5-amino-6-fluorooxepan-2-yl)-1-methyl-1H-pyrazol-4-yl)-2-((S)-6,8-difluoro-4-hydroxychroman-7-yl)thiazole-4-carboxamide], the IC50 is 96.2 nM in test [2] and greater than 25000 nM in test [3]. The EC50 in test [4] was found to be 1500 nM.

Take `N[C@@H]1CC[C@@H](c2c(NC(=O)c3csc(-c4c(F)cccc4F)n3)cnn2CC(F)F)OC[C@H]1F` [Example 115, N-(5-((2S,5R,6S)-5-amino-6-fluorooxepan-2-yl)-1-(2,2-difluoroethyl)-1H-pyrazol-4-yl)-2-(2,6-difluorophenyl)thiazole-4-carboxamide]: the IC50 in test [2] was determined as 29.3 nM; in test [3], 5500 nM. Also, in test [4], the EC50 came out at 181 nM.

Take `N[C@H]1CC[C@H](c2c(NC(=O)c3csc(-c4c(F)cccc4F)n3)cnn2CC(F)F)OC[C@@H]1F` [Example 116, N-(5-((2R,5S,6R)-5-amino-6-fluorooxepan-2-yl)-1-(2,2-difluoroethyl)-1H-pyrazol-4-yl)-2-(2,6-difluorophenyl)thiazole-4-carboxamide]: the IC50 was 2750 nM in test [2] and 10500 nM in test [3]. In test [4], the EC50 worked out at 2700 nM.

As to `C[C@@H]1O[C@H](c2c(NC(=O)c3csc(-c4c(F)cccc4F)n3)cnn2C)CC[C@@H](N)[C@@H]1F` [Example 124, N-[5-[(2S,5R,6S,7S)-5-amino-6-fluoro-7-methyl-oxepan-2-yl]-1-methyl-pyrazol-4-yl]-2-(2,6-difluorophenyl)thiazole-4-carboxamide], the Ki in test [1] was determined as 0.051 nM. Further, the EC50 in test [4] came out at 54 nM.

Regarding `Cn1ncc(NC(=O)c2csc(-c3cn4ccncc4n3)n2)c1[C@@H]1CC[C@@H](N)[C@H](F)CO1` [Example 125, N-(5-((2S,5R,6S)-5-amino-6-fluorooxepan-2-yl)-1-methyl-1H-pyrazol-4-yl)-2-(imidazo[1,2-a]pyrazin-2-yl)thiazole-4-carboxamide], the Ki in test [1] is 32.8 nM. For the same molecule, the EC50 in test [4] is greater than 25000 nM.

In test [1], `N[C@H]1CC[C@H](c2[nH]ncc2NC(=O)c2csc(-c3c(F)cccc3F)n2)OC[C@@H]1F` [Example 126, N-(5-((2R,5S,6R)-5-amino-6-fluorooxepan-2-yl)-1H-pyrazol-4-yl)-2-(2,6-difluorophenyl)thiazole-4-carboxamide] showed a Ki of 1.48 nM. Further, the EC50 in test [4] stood at 8000 nM.

On to `Cc1cccnc1-c1nc(C(=O)Nc2cn[nH]c2[C@H]2CC[C@H](N)[C@@H](F)CO2)cs1` [Example 127, N-(5-((2R,5S,6R)-5-amino-6-fluorooxepan-2-yl)-1H-pyrazol-4-yl)-2-(3-methylpyridin-2-yl)thiazole-4-carboxamide], for which affinity in test [1] was put at a Ki of 1.1 nM. For the same molecule, in test [4], the EC50 came out at 10800 nM.

Consider `Cc1cccnc1-c1nc(C(=O)Nc2cn[nH]c2[C@@H]2CC[C@@H](N)[C@H](F)CO2)cs1` [Example 128, N-(5-((2S,5R,6S)-5-amino-6-fluorooxepan-2-yl)-1H-pyrazol-4-yl)-2-(3-methylpyridin-2-yl)thiazole-4-carboxamide], for which the Ki in test [1] came out at 0.777 nM. For the same molecule, the concentration for a half-maximal effect (EC50) in test [4] was found to be 3000 nM.

For the molecule `N[C@@H]1CC[C@@H](c2[nH]ncc2NC(=O)c2csc(-c3c(F)cccc3F)n2)OC[C@H]1F` [Example 129, N-(5-((2S,5R,6S)-5-amino-6-fluorooxepan-2-yl)-1H-pyrazol-4-yl)-2-(2,6-difluorophenyl)thiazole-4-carboxamide], the Ki in test [1] was 0.958 nM. Further, the EC50 in test [4] came to 7300 nM.
